According to publication PMC8603350, “A Remote Secondary Binding Pocket Promotes Heteromultivalent Targeting of DC-SIGN” (Journal of the American Chemical Society, 2021):
Read-outs that look alike come from different tables or passages of the source.

Tests used:
[1] = target: T1, Langerin CRD (Homo sapiens, UniProt Q9UJ71); test: 15N HSQC NMR titration, KD determination; assay type: binding; settings: 10% DMSO
T1 construct: Langerin carbohydrate recognition domains (CRDs) were expressed insolubly in; made in house; host or cells: E. coli BL21* (DE3)
Protocol: ppm. The acquisition time tacq was set to 2.0 s and the DPFGSE pulse sequence was utilized for solvent suppression.33 Receptor resonances were suppressed using a T1,rho filter at a relaxation time τ of 35 ms.
Epitope mapping. The binding epitope for 43 was determined at a concentration of 500 µM. For each spectrum 512 scans were recorded. The relaxation delay d 1 was set to 6 s and spectra were recorded at 5 different saturation time s tsat varying from 0.25 to 6.00 s. Equation 1 served to derive the STD effect STD for each analyzed resonance from the corresponding on - and off-resonance spectra.34 I0 represents the integral of a resonance in the off-resonance spectrum and Isat represents the integral of a resonance in the on-resonance spectrum.
The apparent saturation rate k sat and the maximal STD effect STDmax were derived from Equation 2 in a two-parameter fit.35 Standard errors were derived directly from the fitting procedures. These parameters were used to calculate the initial slope of the STD build-up curves STD’0 via Equation 3. STD’0 values were normalized and mapped on the corresponding ligand structure. Only resonances for which at least part of a multiplet was isolated were considered for the epitope mapping.
STD = STDmax(1 − eksattsat)
General remarks. 15N HSQC NMR experiments were conducted on an Ascend 700 MHz spectrometer (Bruker).36 Spectra were processed in NMRPipe.37 Data analysis was performed using CCPN Analysis, MatLab (MathWorks) and OriginPro.38 […]
KD determination. KD values were determined in titration experiments at six ligand concentrations [L]T. Samples were prepared via serial dilution. Chemical shift perturbations CSPs for Langerin CRD resonances in the fast or fast-to-intermediate exchange regime observed upon titration with ligand were calculated as previously described via Equation 4.40
A standard deviation σ of 0.02 ppm was previously determined for the measurement of chemical shifts in 15N HSQC NMR experiments with the Langerin CRD. […]

[2] = target: T2, Langerin ECD (Homo sapiens, UniProt Q9UJ71); test: 19F NMR reporter displacement assay (RDA), KI determination by titration; assay type: binding; settings: for Ki: competitive titration, 0.1 mM reporter ligand 49, 10% DMSO
T2 construct: the trimeric Langerin extracellular domain (ECD) was; made in house; host or cells: E. coli BL21* (DE3)
Protocol: (§1) via SDS PAGE. The protein solution was aliquoted, snap frozen in liquid N2 and stored at -80°C until further usage.
(§2) NMR binding experiments – Langerin
(§3) General remarks. 19F R2-filtered NMR experiments were conducted on a PremiumCompact 600 MHz spectrometer (Agilent). Spectra were processed in MestreNova (Mestrelab Research) and data analysis was performed with OriginPro (OriginLab) . Experiments with the Langerin ECD were perf ormed at a receptor concentration of 50 μM in 25 mM Tris with 10% D 2O, 150 mM NaCl and 5 mM CaCl 2 […]
(§4) at pH 7.8 and 25°C. […]
CaCl2 at pH 7.0 and 25°C. TFA served as an internal reference at a concentration of 50 μM. Apparent transverse relaxation rates R 2,obs for the reporter ligand were determined using the CPMG pulse sequence as previously published. 6,30,31 […]
KI determination. KI values were determined as previously published for Langerin.6 Briefly, titration experiments were conducted at a concentration of 0.1 mM of reporter ligand 49 at five competitor concentrations [I]T (Table S5). […]

[3] = target: T1, Langerin CRD; parameters: method as in earlier work; settings: previously published values; ref 6 (SI); cited from earlier work
[4] = target: T3, DC-SIGN ECD (Homo sapiens, UniProt Q9NNX6); test: 19F NMR reporter displacement assay transferred to DC-SIGN ECD; assay type: binding; settings: 0.1 mM reporter 49; for 48 estimated, receptor precipitation above 1 mM
T3 construct: DC-SIGN extracellular domain (ECD); made in house; host or cells: E. coli BL21(DE3), pET30b; gene from GenScript
T3 sequence (Q9NNX6 59-404 limits assumed): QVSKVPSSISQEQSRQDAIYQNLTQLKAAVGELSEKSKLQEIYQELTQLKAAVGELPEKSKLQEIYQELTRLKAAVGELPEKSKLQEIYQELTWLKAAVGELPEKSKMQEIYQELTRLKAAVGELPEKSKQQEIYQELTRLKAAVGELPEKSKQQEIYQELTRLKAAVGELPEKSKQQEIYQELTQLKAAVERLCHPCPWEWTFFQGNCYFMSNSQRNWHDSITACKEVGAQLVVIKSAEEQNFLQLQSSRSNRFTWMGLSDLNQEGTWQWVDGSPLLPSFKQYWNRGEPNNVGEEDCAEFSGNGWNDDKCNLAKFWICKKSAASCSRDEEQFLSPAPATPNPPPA
Protocol: KI values were determined as previously described for Langerin and the DC-SIGN CRD.6 Briefly, competitive binding experiments were conducted with 49 at a concentration of 0.1 mM and varying competitor concentrations [I]T. KI and [P]T values were derived from Equation 8 in a two-parameter fit.
𝜃 = 𝑐𝑜𝑠−1 ( ) ,𝑎 = 𝐾𝐷 + 𝐾𝐼 + [𝐿]𝑇 + [𝐼]𝑇 − [𝑃]𝑇
𝑏 = ([𝐼]𝑇 − [𝑃]𝑇)𝐾𝐷 + ([𝐿]𝑇 − [𝑃]𝑇)𝐾𝐷 + 𝐾𝐼𝐾𝐷, 𝑐 = −𝐾𝐼𝐾𝐷[𝑃]𝑇
For KD determination from 19F NMR CSPs, samples and measurements were set up as described for 19F R2-filtered NMR but at a single relaxation time T = 0 s. CSP 19F, T were calculated from the chemical shift of the 19F resonance of 48 in the presence of protein δT at increasing ligand concentrations and the chemical shift in absence of protein δf at a concentration of 1 mM via Equation 4.
The KD value was calculated from CSP19F, T values in a two -parameter fit using Equation 10, using a fixed protein concentration [P] T and a CSP19F of 0 ppm as a lower bound. CSP19F,b corresponds to the top asymptote and was kept variable. As in Equation 9, pb represents the fraction of bound protein.

[5] = tested on: DC-SIGN+ Raji cells; test: Liposome binding assay, flow cytometry; assay type: cell-based
Protocol: (§5) If not stated otherwise, all media and supplements for cell culture experiments were purchased from Thermo Fisher Scientific. Raji, THP-1 and U937 cell lines (ATCC) were grown in complete growth medium containing RPMI1640 medium, 10% FCS, 100 U mL-1 Penicillin-Streptomycin and GlutaMax at 37°C and 5% CO2. Cells were monitored with a light microscope (IT40 5PH, VWR) and subcultured every 2 -3 days to maintain cell densities ranging from of 0.5 - 3 x 10^6 cells per mL.
(§6) CLR-expressing cell lines were generated as described before.4,27 Briefly, DC-SIGN, Langerin, murine Langerin and murine Dectin-1 cDNAs (Sinobiologicals) were cloned into a lentiviral BIC-PGK-Zeo-T2a-mAmetrine:EF1A construct by Gibson assembly (NEB) according to the manufacturer’s protocol. HEK293 cells were transfected with the lentiviral vector together with third-generation packaging vectors and viral particles were then used for transduction of Raji cells. In analogy, DC-SIGN and Langerin-expressing THP-1 and U937 cell lines were generated by lentiviral transduction.
(§7) Liposome binding assay – flow cytometry
(§8) Liposome binding to CLR-expressing cells was assayed as previously described.27 Briefly, 0.05 x 10^6 cells were plated in transparent conical-bottom 96 well microtiter plates (Nunc) in a volume of 100 µL medium. Plates were centrifuged at 500 x g for 3 minutes, supernatant was aspirated, and cells were resuspended in 100 µL medium, containing 16 µM liposomes. In control experiments, cells were incubated with medium containing 10 mM EDTA or 50 µg mL-1 mannan for 15 min at 4 °C, prior to liposome application. After 1 h incubation at 4 °C in the dark, cells were centrifuged at 500 x g for 3 min and the supernatant was discarded. Cells wer e resuspended in 200 µL ice-cold medium and analyzed by detecting the co-formulated Alexa 647 dye via flow cytometry with a 654 nm laser and a 670/14 nm filter (Attune Nxt, life technologies).
Flow cytometry data was processed using FlowJo (BD Bioscience). Mean fluorescence intensity (MFI) was further analyzed and plotted using GraphPad Prism (GraphPad […]
To monitor allosteric activation of DC-SIGN by glycomimetic 48, the described protocol was adjusted as follows. DC-SIGN+ Raji cells were plated in transparent conical-bottom 96 well microtiter plates (Nunc) in a volume of 100 µL medium. Plates were centrifuged at 500 x g for 3 minutes, supernatant was aspirated, and cell were resuspended in 25 µL medium supplemented with varying concentrations of monovalent carbohydrates or 0.5 mM 48. Homomultivalent liposomes carrying either natural carbohydrates or 48 were added at a final concentration of 16 µM. Liposome binding was subsequently quantified by measuring Alexa 647 fluorescence in flow cytometry experiments. Statistical significance by means of a student’s t-test was assessed based on averaged normalized MFIs from four biological replicates each conducted as technical duplicates. A p-value < 0.05 was set as significance cut-off.

[6] = target: T2, Langerin ECD; test: 19F R2-filtered NMR screening of the mannoside library (reporter displacement, single competitor concentration); assay type: binding
Protocol: as §1, §2, §3, §4
CaCl2 at pH 7.0 and 25°C. TFA served as an internal reference at a concentration of 50 μM. Apparent transverse relaxation rates R 2,obs for the reporter ligand were determined using the CPMG pulse sequence as previously published. 6,30,31 Screening of mannoside library . Estimated affinities KI,est were determined in competitive binding experiments at 0.1 mM of reporter ligand 49 at 0.1 mM using the Langerin ECD at a single competitor concentration as previously described.6 Here, receptor concentrations [P]T values were directly calculated from R2,max, the data point at 0.1 mM 49 in absence of competitor. Subsequently, KI values were estimated in a one parameter fit. The screening was conducted in presence of 0% to 10% DMSO at mannoside concentrations between 0.1 and 10 mM. […]

[7] = tested on: Langerin+ Raji cells; test: Liposome binding assay, flow cytometry; assay type: cell-based
Protocol: as §5, §6, §7, §8
(§9) Flow cytometry data was processed using FlowJo (BD Bioscience). Mean fluorescence

[8] = tested on: murine Dectin-1-expressing Raji cells; test: Liposome binding assay, flow cytometry; assay type: cell-based
Protocol: as §5, §6, §7, §8, §9

[9] = tested on: murine Langerin-expressing Raji cells; test: Liposome binding assay, flow cytometry; assay type: cell-based
Protocol: as §5, §6, §7, §8, §9

[10] = calculated utilizing the KI value determined for 45
[11] = calculated utilizing the KI value determined for 46

T2 sequence (Q9UJ71 65-328 limits assumed): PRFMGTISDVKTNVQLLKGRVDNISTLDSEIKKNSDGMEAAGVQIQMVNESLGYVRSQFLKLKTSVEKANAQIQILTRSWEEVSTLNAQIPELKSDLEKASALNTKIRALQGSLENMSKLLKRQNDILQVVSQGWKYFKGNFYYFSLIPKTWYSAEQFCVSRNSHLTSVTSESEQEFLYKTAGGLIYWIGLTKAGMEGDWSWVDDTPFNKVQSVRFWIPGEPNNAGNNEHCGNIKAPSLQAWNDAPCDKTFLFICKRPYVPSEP
T1 sequence (Q9UJ71 202-320 limits assumed): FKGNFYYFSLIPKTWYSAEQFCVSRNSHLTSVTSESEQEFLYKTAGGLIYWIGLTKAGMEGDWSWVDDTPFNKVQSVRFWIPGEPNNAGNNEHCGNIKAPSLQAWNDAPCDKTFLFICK

`CC(=O)NCCS(=O)(=O)NC[C@H]1O[C@H](Oc2ccc(-c3ccc(C(=O)O)cc3)cc2C(F)(F)F)[C@@H](O)[C@@H](O)[C@@H]1O` [compound 43] gave a Kd [1] of 460 ± 90 µM, a Relative potency [2, 10] of 40 and a Ki [2] of 250 ± 70 µM. The “affinity increase over Man reference 45” value ([2]; from KI) was 40 fold.
For `OC[C@H]1OC(O)[C@@H](O)[C@@H](O)[C@@H]1O` (stereo partly shown) [Man, mannose, reference compound], the Kd [3] is given as 5800 ± 300 µM, the Relative potency [2, 10] is given as 2.2 and the Ki [4] is given as 2400 ± 800 µM.
For `C[C@H](O)[C@@H](O)[C@@H](O)[C@H](O)C=O` [Fuc, fucose, reference compound], the “effect of soluble compound on binding of 48 liposomes” value ([5]; soluble Fuc, liposomes with 1.26 mol % 48, p > 0.05, n = 4) was “did not increase”.
In the case of `O=C(O)c1ccc(-c2ccc(O[C@H]3O[C@H](CO)[C@@H](O)[C@H](O)[C@@H]3O)c(C(F)(F)F)c2)cc1` [compound 9], the potency estimated from few doses ([6]; estimated at a single competitor concentration, 0.1 mM reporter ligand 49, 0% to 10% DMSO, read-out: KI,est) is reported as 200 µM, the “affinity increase over reference molecule 1” value ([6]; from KI,est) is reported as 45 fold and the Kd [1] is reported as 500 ± 200 µM. It also gave a Relative potency [2, 10] of 44, a Relative potency [2, 11] of 57 and a Ki [2] of 230 ± 30 µM.
With `NCCS(=O)(=O)NC[C@H]1O[C@H](Oc2ccc(-c3ccc(C(=O)O)cc3)cc2C(F)(F)F)[C@@H](O)[C@@H](O)[C@@H]1O` [compound 42] the “binding of homomultivalent liposomes decorated with 2 mol% 42” value (“binding … with 2 mol% 42” for short) [7] was “negligible”, the “binding … with 2 mol% 42” value [8] was “negligible” and the “binding … with 2 mol% 42” value [9] was “negligible”. The “binding … with 2 mol% 42” value ([5]; 2 mol%, formulations not long-term stable, unspecific binding) was “binding preference towards DC-SIGN”.
With `CC(=O)NCCO[C@H]1O[C@H](CO)[C@@H](O)[C@H](O)[C@@H]1O` [compound 45, reference compound] the Relative potency [2, 10] was 1.0.
Compound `COC1OC(CO)C(O)C(O)C1O` (stereo not shown) [compound 46, reference compound] has a Kd [1] of 7000 ± 2000 µM, a Relative potency [2, 11] of 1.0 and a Ki [2] of 13000 ± 3000 µM.
